Where two headings read alike, the source gives them in different places.
Legend:
VIM-1 = VIM-1 (Pseudomonas aeruginosa (strain ATCC 15692 / DSM 22644 / CIP 104116 / JCM 14847 / LMG 12228 / 1C / PRS 101 / PAO1), UniProt A0A0F7KYQ8); experiment: Enzyme activity: determination of IC50, fluorescence assay with CCF2-FA substrate (VIM-1); type: biochemical
NDM-1 = NDM-1 (Klebsiella pneumoniae, UniProt C7C422); experiment: biochemical; type: biochemical; conditions: fluorescence assay with CCF2-FA substrate; read-out: NDM-1 IC50
[1] = tested on: Escherichia coli expressing NDM-1 (CLB30005); experiment: Antibiotic potentiation activity: synergistic concentration (MITC95) with imipenem, OD600 growth; type: cell-based; conditions: concentration giving 95% inhibition of bacterial growth
In short: (§1)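 Overnight colonies (35 °C) were suspended in saline, diluted 1:100 into 1.1× CAMHB, and exposed to test compound with imipenem at 4 μg/ml (optionally 1 μg/ml) in assay. After 22–24 h at 35 °C, growth was read by absorbance.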

[2] = tested on: Klebsiella pneumoniae expressing VIM-1 (IHMA599644); experiment: as above; type: cell-based; conditions: concentration giving 95% inhibition of bacterial growth
In short: as §1

[3] = tested on: Serratia marcescens expressing IMP-1 (CL5741); experiment: as above; type: cell-based; conditions: concentration giving 95% inhibition of bacterial growth
In short: as §1

IMP-1 = IMP-1 (Serratia marcescens, UniProt P52699); experiment: biochemical; type: biochemical; conditions: fluorescence assay with CCF2-FA substrate; read-out: IMP-1 IC50
[4] = fluorescence assay with CCF2-FA substrate, read-out: VIM-1 IC50
[5] = VIM-1 IC50, fluorescence assay with CCF2-FA substrate

Sequence of IMP-1 (P52699 whole entry, looked up): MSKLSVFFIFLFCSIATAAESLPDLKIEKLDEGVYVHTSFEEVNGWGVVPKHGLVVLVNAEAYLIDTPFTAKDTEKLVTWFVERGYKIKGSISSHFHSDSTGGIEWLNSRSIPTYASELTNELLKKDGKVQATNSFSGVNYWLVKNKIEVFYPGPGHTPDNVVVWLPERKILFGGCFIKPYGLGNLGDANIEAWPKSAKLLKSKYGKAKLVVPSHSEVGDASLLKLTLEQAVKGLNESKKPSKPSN
Sequence of NDM-1 (C7C422 whole entry, looked up, species assumed): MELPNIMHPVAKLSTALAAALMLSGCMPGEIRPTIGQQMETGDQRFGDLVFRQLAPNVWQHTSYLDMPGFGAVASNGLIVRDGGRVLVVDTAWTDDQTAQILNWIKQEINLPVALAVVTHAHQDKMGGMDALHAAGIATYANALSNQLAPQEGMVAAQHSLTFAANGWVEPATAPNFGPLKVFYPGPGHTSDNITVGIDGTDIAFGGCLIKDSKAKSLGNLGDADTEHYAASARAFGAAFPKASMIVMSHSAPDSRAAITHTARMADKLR

| SMILES | IC50 (VIM-1; [4]) [nM] | IC50 (NDM-1) [nM] | Escherichia coli expressing NDM-1 (CLB 30005) MITC95 [1] [µM] | Klebsiella pneumoniae expressing VIM-1 (IHMA 599644) MITC95 [2] [µM] | Serratia marcescens expressing IMP-1 (CL5741) MITC95 [3] [µM] | IC50 (IMP-1) [nM] | IC50 (VIM-1; [5]) [nM] |
| --- | --- | --- | --- | --- | --- | --- | --- |
| NS(=O)(=O)c1cccc(C2=CCCOC2)c1-c1nn[nH]n1 [Example 63, 3-(5,6-dihydro-2H-pyran-3-yl)-2-(2H-tetrazol-5-yl)benzenesulfonamide] | 1320 | 48.9 | 0.7813 | 100 | 50 | 1560 | – |
| N#CC1CC=C(c2cccc(S(N)(=O)=O)c2-c2nn[nH]n2)CC1 (stereo not drawn) [Example 64, 3-(4-cyanocyclohex-1-en-1-yl)-2-(2H-tetrazol-5-yl)benzenesulfonamide] | 588 | 13.4 | 1.953 | 200 | 50 | 248 | – |
| CN1CCC=C(c2cccc(S(N)(=O)=O)c2-c2nn[nH]n2)C1 [Example 65, 3-(1-methyl-1,2,5,6-tetrahydropyridin-3-yl)-2-(2H-tetrazol-5-yl)benzenesulfonamide] | 4990 | 905 | 4.688 | >200 | >200 | 20000 | – |
| NS(=O)(=O)c1cccc(-c2ccc3ncccc3c2)c1-c1nn[nH]n1 [Example 66, 3-quinolin-6-yl-2-(2H-tetrazol-5-yl)benzenesulfonamide] | 29.1 | 1.1 | 0.7813 | 75 | 18.75 | 140 | – |
| Cn1nnc2ccc(-c3cccc(S(N)(=O)=O)c3-c3nn[nH]n3)cc21 [Example 67, 3-(1-methyl-1H-benzotriazol-6-yl)-2-(2H-tetrazol-5-yl)benzenesulfonamide] | 57 | 2.16 | 2.344 | 62.5 | 75 | 911 | – |
| Cn1ncc2cc(-c3cccc(S(N)(=O)=O)c3-c3nn[nH]n3)ccc21 [Example 68, 3-(1-methyl-1H-indazol-5-yl)-2-(2H-tetrazol-5-yl)benzenesulfonamide] | 33.7 | 1.99 | 2.344 | 75 | 12.5 | 81.9 | – |
| NS(=O)(=O)c1cccc(-c2ccc3c(=O)nc[nH]c3c2)c1-c1nn[nH]n1 [Example 69, 3-(4-oxo-1,4-dihydroquinazolin-7-yl)-2-(2H-tetrazol-5-yl)benzenesulfonamide] | 26.4 | 5.05 | 0.7813 | 25 | 18.75 | 237 | – |
| NS(=O)(=O)c1cccc(-c2cccc(-n3nccn3)c2)c1-c1nn[nH]n1 [Example 70, 2-(2H-tetrazol-5-yl)-3′-(2H-1,2,3-triazol-2-yl)biphenyl-3-sulfonamide] | 28.9 | 2 | 1.563 | 150 | 18.75 | 105 | – |
| NS(=O)(=O)c1cccc(-c2ccc3ccncc3c2)c1-c1nn[nH]n1 [Example 71, 3-isoquinolin-7-yl-2-(2H-tetrazol-5-yl)benzenesulfonamide] | 14.5 | 1.22 | 0.7813 | 75 | 18.75 | 78.6 | – |
| NS(=O)(=O)c1cccc(-c2ccc(-c3nnn[nH]3)cc2)c1-c1nn[nH]n1 [Example 72, 4′-(1H-tetrazol-5-yl)-2-(2H-tetrazol-5-yl)biphenyl-3-sulfonamide] | 22.2 | 0.637 | 2.344 | 25 | 12.5 | 48.7 | – |
| CC1C(=O)Nc2ccc(-c3cccc(S(N)(=O)=O)c3-c3nn[nH]n3)cc21 (stereo not drawn) [Example 73, 3-(3-methyl-2-oxo-2,3-dihydro-1H-indo1-5-yl)-2-(2H-tetrazol-5-yl)benzenesulfonamide] | 66.7 | 6.49 | 1.563 | 100 | 18.75 | 156 | – |
| NS(=O)(=O)c1cccc(-c2ccc3[nH]nnc3c2)c1-c1nn[nH]n1 [Example 74, 3-(1H-benzotriazol-5-yl)-2-(2H-tetrazol-5-yl)benzenesulfonamide] | – | 26.4 | 0.9766 | 50 | 18.75 | 1610 | 475 |
| CC1(c2ccc(-c3cccc(S(N)(=O)=O)c3-c3nn[nH]n3)cc2)SC(=O)NC1=O (stereo not drawn) [Example 75, 4′-(5-methyl-2,4-dioxo-1,3-thiazolidin-5-yl)-2-(2H-tetrazol-5-yl)biphenyl-3-sulfonamide] | 98.1 | 4.57 | 6.25 | >200 | 3.906 | 9.96 | – |
| NS(=O)(=O)c1cccc(-c2ccc(CC3OC(=O)NC3=O)cc2)c1-c1nn[nH]n1 (stereo not drawn) [Example 76, 4′-[(2,4-dioxo-1,3-oxazolidin-5-yl)methyl]-2-(2H-tetrazol-5-yl)biphenyl-3-sulfonamide] | 244 | 17.1 | 6.25 | >200 | 6.25 | 42.7 | – |
| COc1ccc(-c2cccc(S(N)(=O)=O)c2-c2nn[nH]n2)cn1 [Example 78, 3-(6-methoxypyridin-3-yl)-2-(2H-tetrazol-5-yl)benzenesulfonamide] | 147 | 19.3 | 0.7813 | 100 | 18.75 | 202 | – |
| Cc1nc(F)ccc1-c1cccc(S(N)(=O)=O)c1-c1nn[nH]n1 [Example 79, 3-(6-fluoro-2-methylpyridin-3-yl)-2-(2H-tetrazol-5-yl)benzenesulfonamide] | – | 48.6 | 1.563 | 25 | 150 | 3970 | 60.2 |
| NS(=O)(=O)c1cccc(-c2ccc(O)nc2)c1-c1nn[nH]n1 [Example 80, 3-(6-hydroxypyridin-3-yl)-2-(2H-tetrazol-5-yl)benzenesulfonamide] | – | 81.8 | 0.3906 | 25 | 50 | 2380 | 542 |
| NC(=O)c1cccc(-c2cccc(S(N)(=O)=O)c2-c2nn[nH]n2)c1 [Example 81, 3′-sulfamoyl-2′-(2H-tetrazol-5-yl)biphenyl-3-carboxamide] | 255 | 34.6 | 0.9766 | 37.5 | 37.5 | 571 | – |

Source: patent US9708336B2, “Metallo-beta-lactamase inhibitors” (priority 2014, dated 2017)
